# Measured values published in patent US20070155730A1, “Benzodiazepine And Benzopiperazine Analog Inhibitors Of Histone Deacetylase” (METHYLGENE, INC., priority 2005, published 2007).
# Target: histone deacetylase (HDAC)
# Assay: Inhibition of Histone Deacetylase Enzymatic Activity
# Format: biochemical
# Details: substrate Boc-Lys(Ac)-AMC, Fluor-de-Lys developer, 37° C., 20 min; against one or more of HDAC-1 to HDAC-11, SirT1 to SirT7 (isoform not given); read-out: HDAC Inhibitory Activity (IC50)
# Experimental: The following protocol is used to assay the compounds of the invention. In the assay, the buffer used is 25 mM HEPES, pH 8.0, 137 mM NaCl, 2.7 mM KCl, 1 mM MgCl2 and the substrate is Boc-Lys(Ac)-AMC in a 50 mM stock solution in DMSO. The enzyme stock solution is 4.08 μg/mL in buffer.
# The compounds are pre-incubated (2 μl in DMSO diluted to 13 μl in buffer for transfer to assay plate) with enzyme (20 μl of 4.08 μg/mL) for 10 min at room temperature (35 μl pre-incubation volume). The mixture is pre-incubated for 5 min at room temperature. The reaction is started by bringing the temperature to 37° C. and adding 16 μl substrate. Total reaction volume is 50 μl. […] A plate is incubated in the dark for 10 min at room temperature before reading (λEX=360 nm, λEm=470 nm, Cutoff filter at 435 nm).
# In the table, “A” indicates inhibitory activity at a concentration of <0.05 μM; “B” indicates inhibitory activity at a concentration >0.05 μM but <0.5 μM, “C” indicates inhibitory activity at >0.5 μM but <2 μM and “D” indicates inhibitory activity at a concentration of >2 μM but <10 μM.
row,IC50,SMILES
1,500 to 2000 nM,"O=C(NO)c1ccc2c(c1)NC(=O)[C@@H](Cc1c[nH]c3ccccc13)NC2=O [Compound 97d, (R)-3-((1H-Indol-3-yl)methyl)-N-hydroxy-2,5-dioxo-2,3,4,5-tetrahydro-1H-benzo[e][1,4]diazepine-8-carboxamide]"
2,500 to 2000 nM,"O=C(NO)c1ccc2c(c1)NC(=O)[C@H](Cc1c[nH]c3ccccc13)N2 [Compound 4c, (S)-2-((1H-indol-3-yl)methyl)-1,2,3,4-tetrahydro-N-hydroxy-3-oxoquinoxaline-6-carboxamide]"
3,500 to 2000 nM,"CC(C)[C@H]1C(=O)Nc2cc(C(=O)NO)ccc2N1Cc1ccc2ccccc2c1 [Compound 16h, (S)-1,2,3,4-tetrahydro-N-hydroxy-2-isopropyl-1-((naphthalen-3-yl)methyl)-3-oxoquinoxaline-6-carboxamide]"
4,2000 to 10000 nM,"CCC(C)[C@@H]1Nc2ccc(C(=O)NO)cc2NC1=O (stereo partly drawn) [Compound 4d, (S)-2-sec-butyl-1,2,3,4-tetrahydro-N-hydroxy-3-oxoquinoxaline-6-carboxamide]"
5,50 to 500 nM,"O=C(CCCCCC1NC(=O)c2cc(NC(=O)OCc3ccccc3)ccc2NC1=O)NO (stereo not drawn) [Compound 92a, 6-(7-Benzyloxycarbonylamino-2,3,4,5-tetrahydro-2,5-dioxo-1H-benzo[e][1,4]diazepin-3-yl)-N-hydroxyhexanamide]"
6,2000 to 10000 nM,"CC(C)[C@H]1C(=O)Nc2cc(C(=O)NO)ccc2N1S(=O)(=O)c1ccccc1 [Compound 18a, (S)—N-hydroxy-2-isopropyl-3-oxo-1-(phenylsulfonyl)-1,2,3,4-tetrahydroquinoxaline-6-carboxamide]"
7,50 to 500 nM,"O=C(CCCCC[C@@H]1NC(=O)c2cc(NC(=O)OCc3ccccc3)ccc2NC1=O)NO [Compound 92b, (S)-Benzyl 3-(6-(hydroxyamino)-6-oxohexyl)-2,5-dioxo-2,3,4,5-tetrahydro-1H-benzo[e][1,4]diazepin-7-ylcarbamate]"
8,2000 to 10000 nM,"CC(C)[C@H]1C(=O)Nc2cc(C(=O)NO)ccc2N1Cc1cccs1 [Compound 16e, (S)-1,2,3,4-tetrahydro-N-hydroxy-2-isopropyl-3-oxo-1-((thiophen-2-yl)methyl)quinoxaline-6-carboxamide]"
9,50 to 500 nM,"COc1ccc(CN2c3ccc(NC(=O)CCCCCCC(=O)NO)cc3NC(=O)[C@H]2C(C)C)cc1 [Compound 26e, N1—((R)-1-(4-Methoxybenzyl)-1,2,3,4-tetrahydro-2-isopropyl-3-oxoquinoxalin-6-yl)-N8-hydroxyoctanediamide]"
10,2000 to 10000 nM,"O=C(NO)c1ccc2c(c1)NC(=O)[C@@H](Cc1c[nH]c3ccccc13)N2 [Compound 4f, (R)-2-((1H-indol-3-yl)methyl)-1,2,3,4-tetrahydro-N-hydroxy-3-oxoquinoxaline-6-carboxamide]"
11,500 to 2000 nM,"CC(C)[C@H]1C(=O)Nc2cc(C(=O)NO)ccc2N1CCCc1ccccc1 [Compound 16c, (S)-1,2,3,4-tetrahydro-N-hydroxy-2-isopropyl-3-oxo-1-(3-phenylpropyl)quinoxaline-6-carboxamide]"
12,50 to 500 nM,"CC(C)[C@@H]1Nc2ccc(NC(=O)CCCCCCC(=O)c3ncco3)cc2NC1=O [Compound 29a, N—((S)-1,2,3,4-Tetrahydro-2-isopropyl-3-oxoquinoxalin-6-yl)-8-(oxazol-2-yl)-8-oxooctanamide]"
13,2000 to 10000 nM,"O=C(NO)c1ccc2c(c1)NC(=O)[C@H](Cc1cn(C(c3ccccc3)(c3ccccc3)c3ccccc3)cn1)N2 [Compound 4g, (S)-1,2,3,4-tetrahydro-N-hydroxy-3-oxo-2-((1-trityl-1H-imidazol-4-yl)methyl)quinoxaline-6-carboxamide]"
14,2000 to 10000 nM,"CC(C)[C@H]1C(=O)Nc2cc(C(=O)NO)ccc2N1Cc1ccccc1 [Compound 16g, (S)-1-benzyl-1,2,3,4-tetrahydro-N-hydroxy-2-isopropyl-3-oxoquinoxaline-6-carboxamide]"

# The next lines start with the compound.
row,SMILES,IC50
1,"CC(C)[C@@H]1Nc2ccc(C(=O)NCCCCCC(=O)NO)cc2NC1=O [Compound 13, (S)—N-(5-(Hydroxycarbamoyl)pentyl)-1,2,3,4-tetrahydro-2-isopropyl-3-oxoquinoxaline-6-carboxamide]",50 to 500 nM
2,"Nc1ccc(-c2cccs2)cc1NC(=O)c1ccc(-c2ccc3c(c2)NC(=O)[C@H](Cc2c[nH]c4ccccc24)N3)cc1 [Compound 62, 4-((S)-2-((1H-indol-3-yl)methyl)-1,2,3,4-tetrahydro-3-oxoquinoxalin-6-yl)-N-(2-amino-5-(thiophen-2-yl)phenyl)benzamide]",50 to 500 nM
3,"O=C(NO)c1ccc(CN2c3ccccc3NC(=O)[C@@H]2Cc2csc3ccccc23)cc1 [Compound 54b14, (S)-4-((2-(benzo[b]thiophen-3-ylmethyl)-3-oxo-3,4-dihydroquinoxalin-1(2H)-yl)methyl)-N-hydroxybenzamide]",50 to 500 nM
4,"COc1ccc(CN2c3ccc(C(=O)NO)cc3NC(=O)[C@@H]2C(C)C)cc1 [Compound 8, (S)-1-(4-Methoxybenzyl)-1,2,3,4-tetrahydro-N-hydroxy-2-isopropyl-3oxoquinoxaline-6-carboxamide]",500 to 2000 nM
5,"O=C(NO)c1ccc(CN2c3ccccc3NC(=O)[C@H]2Cc2cccs2)cc1 [Compound 54a2, 4-(((R)-2,3-Dihydro-2-oxo-3-((thiophen-2-yl)methyl)quinoxalin-4(1H)-yl)methyl)-N-hydroxybenzamide]",< 50 nM
6,"O=C(CCCCCN1C(=O)[C@H](CC2CCCCC2)NC(=O)c2ccccc21)NO [Compound 68b20, 6-((S)-3-(Cyclohexylmethyl)-2,3,4,5-tetrahydro-2,5-dioxobenzo[e][1,4]diazepin-1-yl)-N-hydroxyhexanamide]",500 to 2000 nM
7,"C[C@H]1NC(=O)c2ccccc2N(CCCCCC(=O)NO)C1=O [Compound 68b23, 6-((R)-2,3,4,5-Tetrahydro-3-methyl-2,5-dioxobenzo[e][1,4]diazepin-1-yl)-N-hydroxyhexanamide]",50 to 500 nM
8,"O=C(CCCCCN1C(=O)[C@@H](Cc2ccncc2)NC(=O)c2ccccc21)NO [Compound 68b9, 6-((R)-2,3,4,5-Tetrahydro-2,5-dioxo-3-((pyridin-4-yl)methyl)benzo [e][1,4]diazepin-1-yl)-N-hydroxyhexanamide]",500 to 2000 nM
9,"O=C(CCCCCN1C(=O)[C@H](c2ccccc2)NC(=O)c2ccccc21)NO [Compound 68b11, 6-((S)-2,3,4,5-tetrahydro-2,5-dioxo-3-phenylbenzo[e][1,4]diazepin-1-yl)-N-hydro-xyhexanamide]",50 to 500 nM
10,"O=C(NO)c1cnc(N[C@H]2C[C@@H](C(=O)Nc3cccc4cccnc34)N(C(=O)OCc3ccccc3)C2)nc1 [Compound 122, (2S,4S)-Benzyl 4-(5-(hydroxycarbamoyl)pyrimidin-2-ylamino)-2-(quinolin-8-ylcarbamoyl)pyrrolidine-1-carboxylate]",< 50 nM
11,"CC(C)(C)Oc1ccc(C[C@@H]2C(=O)Nc3ccccc3N2Cc2ccc(C(=O)NO)cc2)cc1 [Compound 54b11, (R)-4-((2-(4-tert-butoxybenzyl)-3-oxo-3,4-dihydroquinoxalin-1(2H)-yl)methyl)-N-hydroxybenzamide]",< 50 nM
12,"O=C(NO)c1ccc(CN2c3ccccc3NC(=O)[C@@H]2Cc2c[nH]c3ccccc23)cc1 [Compound 54b3, (S)-4-((2-((1H-indol-3-yl)methyl)-3-oxo-3,4-dihydroquinoxalin-1(2H)-yl)methyl)-N-hydroxybenzamide]",< 50 nM
13,"O=C(CCCCCN1C(=O)[C@@H](CC2CCCCC2)NC(=O)c2ccccc21)NO [Compound 68b21, 6-((R)-3-(cyclohexylmethyl)-2,3,4,5-tetrahydro-2,5-dioxobenzo[e][1,4]diazepin-1-yl)-N-hydroxyhexanamide]",50 to 500 nM
14,"O=C(NO)c1ccc(CN2c3ccccc3NC(=O)[C@H]2Cc2ccc(F)cc2)cc1 [Compound 54b15, (R)-4-((2-(4-fluorobenzyl)-3-oxo-3,4-dihydroquinoxalin-1(2H)-yl)methyl)-N-hydroxybenzamide]",< 50 nM
15,"O=C(CCCCCN1C(=O)[C@@H](Cc2c[nH]c3ccccc23)NC(=O)c2ccccc21)NO [Compound 68b8, 6-((R)-3-((1H-Hz, indol-3-yl)methyl)-2,3,4,5-tetrahydro-2,5-dioxobenzo[e][1,4]diazepin-1-yl)-N-hydroxyhexanamide]",50 to 500 nM
16,"CC(C)C[C@H]1NC(=O)c2ccccc2N(CCCCCC(=O)NO)C1=O [Compound 68b12, 6-((R)-2,3,4,5-tetrahydro-3-isobutyl-2,5-dioxobenzo[e][1,4]diazepin-1-yl)-N-amide]",50 to 500 nM
17,"O=C(CCCCCC1NC(=O)c2ccccc2N(CCc2c[nH]c3ccccc23)C1=O)NO (stereo not drawn) [Compound 79, 6-(1-(2-(1H-Indol-3-yl)ethyl)-2,3,4,5-tetrahydro-2,5-dioxo-1H-benzo[e][1,4]diazepin-3-yl)-N-hydroxyhexanamide]",50 to 500 nM
18,"O=C(CCCCCN1C(=O)C2(CCCC2)NC(=O)c2ccccc21)NO [Compound 68b16, 6-(3,3-Spirocyclopentyl-2,5-dioxo-2,3,4,5, tetrahydrobenzo [e][1,4]diazepin-1-yl)-N-hydroxyhexanamide]",2000 to 10000 nM
19,"COc1cc(CN2C(=O)C(CCCCCC(=O)NO)NC(=O)c3ccccc32)cc(OC)c1 (stereo not drawn) [Compound 81, 6-(1-(3,5-Dimethoxybenzyl)-2,3,4,5-tetrahydro-2,5-dioxo-1H-benzo[e][1,4]diazepin-3-yl)-N-hydroxyhexanamide]",500 to 2000 nM
